Test results published in US12370236B2, “Method and combination for the suppression of COVID-19 virus” (priority 2021, dated 2025).

How the values were obtained:
[1] = system: SARS-CoV2 hCoV-19/Taiwan/NTU13/2020; test: Plaque reduction assay in Vero E6 cells; type: cell-based
Vero E6 cells = test: Cytotoxicity assay; type: cell-based
Experimental: (§1) FIGS. 6A and 6B show the cytotoxicity of norvancomycin (NV) and nelfinavir (NF). The percentage of cell survival is determined by obtaining cell viability of Vero E6 cells in the presence of drugs of interest and trace amount of DMSO that help fully dissolve the drug, normalized by Vero E6 cells in the presence of the same concentration of said DMSO, which serves as a control, the cell viability in the absence of the drugs. 50% cytotoxic concentration (CC50) represents the concentration of NV and NF required to reduce cell survival by 50%.
(§2) Cytotoxicity assay was performed using Vero E6 cells described above to determine the cytotoxicity of tested compounds, i.e., norvancomycin and nelfinavir. DMSO, the solvent used to help fully dissolve the drugs of interest, was used as the negative control. The percentage of cell survival and 50% cytotoxic concentration (CC50) were derived.

3CL^pro = target: T1, 3CL^pro (Severe acute respiratory syndrome coronavirus 2, UniProt P0DTD1); test: FRET-based 3CL^pro enzyme activity assay; type: biochemical, SARS-CoV2
T1 construct: A 3CL^pro (Cat. #78042-1) assay kit (BPS Bioscience, CA, USA) was used; purchased BPS Bioscience 78042-1
Experimental: FIG. 1 is a scheme of the fluorogenic 3CL^pro protease enzymatic assay. The fluorescence of Edans in the C-terminal of the peptide substrate (Dabcyl-[…]-Edans, the cleavage site is in between the amino acids Q and S) is quenched by the Dabcyl in the N-terminus without the 3CL^pro enzymatic cleavage. After the protease is added and cleaves the peptide substrate, the quencher molecule Dabcyl can no longer quench the fluorophore Edans which results in an increase in fluorescence emission at 460 nm. The intensity of this fluorescence is proportional to the protease activity. FRET: fluorescence resonance energy transfer.
3CL^pro inhibition percentage of different test groups is determined by “(Isubstrate+3CLpro−Itest_group)/(Isubstrate+3CLpro−Isubstrate)×100%, where “I” is the observed intensity of blue fluorescence light (at 460 nm); Isubstrate and Isubstrate+3CLpro are supposed to give the lowest and the highest intensity, respectively, where the substrate is a peptide labeled by a quencher and fluorophore at its N- and C-termini (as shown in FIG. 1). Specifically, the fluorescence of Edans in the C-terminal of the peptide (Dabcyl-[…]-Edans; the cleavage site is in between the amino acids Q and S) is quenched by the Dabcyl in the N-terminus in the absence of the 3CL^pro enzymatic cleavage. Norvancomycin (Nv) is the interface blocker here while the FDA drugs boceprevir (Bc) and GC376 (in its clinical trials) are the active-site inhibitors. The results are shown by the average value of two replicates.
The FRET-based assay was designed for 3CL^pro activity assay and explained in FIG. 1. The 3CL^pro enzyme assay was developed in a 96-well black microplate with a total volume of 50 μL. 30 μL of 0.5 ng/μL enzyme in a reaction buffer was added into each well, followed by the addition of 10 μL substrate solution to a final concentration of 40 μM. Enzymatic reaction gave fluorescence whose intensity was measured after incubation for 4 hours at 37° C. with slow shaking in a microtiter plate reading fluorimeter (BioTek Synergy HTX multi-mode reader, VT, US) with Ex=340 nm/Em=460 nm. […]

Cytotoxicity assay = type: cell-based; conditions: African green monkey, Vero E6 cells
Experimental: as §1, §2

| SMILES | suppression of SARS-CoV2 replication ([1]; 40 μM norvancomycin) | CC50 (Vero E6 cells) | extra 3CL^pro inhibition vs GC376 alone (3CL^pro; 25 μM norvancomycin in combination with 16 nM GC376) | additional 3CL^pro inhibition (3CL^pro; 50 μM norvancomycin in combination with 25 μM boceprevir) | elevation of 3CL^pro inhibition (3CL^pro; co-used with 25 μM boceprevir at molar ratio 1:1) | suppression of SARS-CoV2 replication ([1]; 0.9 μM nelfinavir) | suppression of SARS-CoV2 replication ([1]; 1.8 μM nelfinavir) | suppression of SARS-CoV2 replication ([1]; 1.8 μM nelfinavir together with 37.5 μM norvancomycin) | suppression of SARS-CoV2 replication ([1]; 3.6 μM nelfinavir) | suppression of SARS-CoV2 replication ([1]; 3.6 μM nelfinavir and 37.5 μM norvancomycin) | CC50 (Cytotoxicity assay) | cell survival rate (Vero E6 cells; 1.8 μM nelfinavir) | cell survival rate (Vero E6 cells; 3.6 μM nelfinavir) |
| --- | --- | --- | --- | --- | --- | --- | --- | --- | --- | --- | --- | --- | --- |
| CC(C)C[C@@H](N)C(=O)N[C@H]1C(=O)N[C@@H](CC(N)=O)C(=O)N[C@H]2C(=O)N[C@H]3C(=O)N[C@H](C(=O)N[C@H](C(=O)O)c4cc(O)cc(O)c4-c4cc3ccc4O)[C@H](O)c3ccc(c(Cl)c3)Oc3cc2cc(c3O[C@@H]2O[C@H](CO)[C@@H](O)[C@H](O)[C@H]2O[C@H]2C[C@](C)(N)[C@H](O)[C@H](C)O2)Oc2ccc(cc2Cl)[C@H]1O [Norvancomycin] | 4% | > 100 µM | 10% | 17% | around 10% | – | – | – | – | – | – | – | – |
| Cc1c(O)cccc1C(=O)N[C@@H](CSc1ccccc1)[C@H](O)CN1C[C@H]2CCCC[C@H]2C[C@H]1C(=O)NC(C)(C)C [nelfinavir] | – | – | – | – | – | 41% | 35% | 100% | 100% | 100% | 8.26 ± 0.495 µM | 84% | 69% |
